This is an account of results in patent US20240002436A1, “RESPIRATORY TREATMENTS” (Hofseth Biocare ASA, priority 2020, published 2024).

Test [1] relates to Allergic Human Purified Peripheral Blood Eosinophils. Kind of test: Percent eosinophil apoptosis (Annexin V-FITC, flow cytometry) in allergic human purified peripheral blood eosinophils. Format: cell-based. The conditions noted are these: IL-5 (50 pM), 18 hr incubation; for viability at 10 µg/mL / Percent apoptotic eosinophils (annexin V-positive) at 10 µg/mL: Homo sapiens, Eosinophil, 10 μg/mL test compound, assay SD +/-2.3%; for viability at 10 µg/mL: read-out: Percent live EO cells; for Percent apoptotic eosinophils (annexin V-positive) at 10 µg/mL: read-out: Percent of apoptotic EO cells. The procedure: Percent Eosinophil Apoptosis in Allergic Human Purified Peripheral Blood Eosinophils
Aliquots were removed after 18 hr incubation, washed twice in PBS, and resuspended in binding buffer. The eosinophil cells were stained using the Annexin V-FITC Apoptosis Detection Kit I, (Sigma Aldrich) and immediately analyzed by flow cytometry. Each sample was acquired for 1 min, and the total number of eosinophils gated on a forward scatter/side scatter plot and the percentage of live cells (annexin Vneg) and apoptotic cells (annexin Vpos) was recorded.
A general note: A flow cytometer gives signals particle by particle.

A further test has as its system CD11b on PMNL surface. Nature of the test: CD11b change on PMNL surface stimulated by CCL11 (flow cytometry). The format is cell-based. The note with it: 30 min pretreatment, 2.5 nm CCL11 30 min at 37° C., CD16 negative cells; for activity at 1 µg/mL: Homo sapiens, PMNL, 0.5 h, 1 μg/mL test compound, assay SD +/-2%, read-out: CD11b change (100% as baseline). As to the method: CD11b Change (100% as Baseline) on PMNL Surface Stimulated by 2.5 nm CCL11
(PMNL) cells were pretreated with 3 μg/mL ApoA-IV (positive control), 1 μg/mL test compounds, and formulation vehicle (negative control) for 30 minutes and incubated with serial dilutions of CCL 11 for 30 minutes at 37° C. Samples were stained with anti-CD16-PE-Cy5 and anti-CD11b-PE (ICRF44) antibodies. Eosinophils were identified as CD16 negative cells. CD11b upregulation was analyzed by flow cytometry and reported above. (Standard deviation in the assay is +/−2%). See results in Table 2 below.

[2] abbreviates: 3 μg/mL ApoA-IV (positive control).

Where a SMILES comes first, the peptide text is derived from it. [ ]: non-standard residue; d: D form. The star is where a group is joined. cisHyp = O=C(O)[C@@H]1C[C@H](O)CN1; NMeL = CN[C@@H](CC(C)C)C(=O)O; NMeV = CN[C@H](C(=O)O)C(C)C; Octanoyl = CCCCCCCC(=O)*

`CCCCC(C)CC(C)C(=O)N(C)[C@@H](CC(C)C)C(=O)N[C@H](C(=O)N(C)[C@H](C(=O)N1C[C@@H](O)C[C@H]1C(=O)N1C(=O)C=C[C@@H]1C)C(C)C)C(C)O` (stereo partly drawn) [Compound 8a]: the viability at 10 µg/mL in test [1] (annexin Vneg) was 31.2%. For the same molecule, the Percent apoptotic eosinophils (annexin V-positive) at 10 µg/mL in test [1] (annexin Vpos) amounted to 60.1%. For the same molecule, the activity at 1 µg/mL in the test on CD11b on PMNL surface was found to be 122%.
For the molecule `CCCCC(C)CC(C)C(=O)N(C)CC(=O)N[C@H](C(=O)N(C)CC(=O)N1C[C@@H](O)C[C@H]1C(=O)N1C(=O)C=C[C@@H]1C)C(C)OC(C)=O` (stereo partly drawn) [Compound 7a], the viability at 10 µg/mL in test [1] (annexin Vneg) is 59.4%. Besides, the Percent apoptotic eosinophils (annexin V-positive) at 10 µg/mL in test [1] (annexin Vpos) was 39.9%. Besides, the activity at 1 µg/mL in the test on CD11b on PMNL surface worked out at 149%.
The corresponding values for `CCCCCCCC(=O)N(C)[C@@H](CC(C)C)C(=O)N[C@H](C(=O)N(C)[C@H](C(=O)N1C[C@@H](O)C[C@H]1C(=O)N1C(=O)C=C[C@@H]1C)C(C)C)C(C)OC(C)=O` (stereo partly drawn) [Compound 5a] are 42.9%, 53.1% and 129%.
The corresponding values for `CCCCC(C)CC(C)C(=O)N(C)[C@@H](CC(C)C)C(=O)N[C@@H](CS)C(=O)N(C)[C@H](C(=O)N1CCC[C@H]1C(=O)N1C(=O)C=C[C@@H]1C)C(C)C` (stereo partly drawn) [Compound 11a] are 49.7%, 44.4% and 135%.
For the molecule `CCCCC(C)CC(C)C(=O)N(C)[C@@H](CC(C)C)C(=O)N[C@H](C(=O)N(C)[C@H](C(=O)N1C[C@@H](O)C[C@H]1C(=O)N1C(=O)C=C[C@@H]1C)C(C)C)C(C)OC(C)=O` (stereo partly drawn) [Compound 1b], the viability at 10 µg/mL in test [1] (annexin Vneg) was found to be 41.8%. Besides, the Percent apoptotic eosinophils (annexin V-positive) at 10 µg/mL in test [1] (annexin Vpos) was 55%. For the same molecule, the activity at 1 µg/mL with CD11b on PMNL surface amounted to 128%.
With `CCCC[C@@H](C)C[C@@H](C)C(=O)N(C)[C@@H](CC(C)C)C(=O)N[C@H](C(=O)N(C)[C@H](C(=O)N1CCC[C@H]1C(=O)N1C(=O)C=C[C@@H]1C)C(C)C)C(C)OC(C)=O` (stereo partly drawn) [Compound 3a], the viability at 10 µg/mL in test [1] (annexin Vneg) amounted to 51.6%. Moreover, in test [1] (annexin Vpos), the Percent apoptotic eosinophils (annexin V-positive) at 10 µg/mL was determined as 43.7%. The activity at 1 µg/mL in the test with CD11b on PMNL surface was found to be 139%.
The corresponding values for `CCCC[C@@H](C)C[C@@H](C)C(=O)N(C)[C@@H](CC(C)C)C(=O)N[C@H](C(=O)N(C)[C@H](C(=O)N1C[C@@H](O)C[C@H]1C(=O)N1C(=O)C=C[C@@H]1C)C(C)C)C(C)OC(C)=O` (stereo partly drawn) [Compound 1a] are 42.5%, 53.2% and 129%.
Take `CCCCC(C)CC(C)C(=O)N[C@@H](CC(C)C)C(=O)N[C@H](C(=O)N[C@H](C(=O)N1C[C@@H](O)C[C@H]1C(=O)N1C(=O)C=C[C@@H]1C)C(C)C)C(C)OC(C)=O` (stereo partly drawn) [Compound 6a]: the viability at 10 µg/mL in test [1] (annexin Vneg) came to 54.5%. Moreover, the Percent apoptotic eosinophils (annexin V-positive) at 10 µg/mL in test [1] (annexin Vpos) worked out at 42.8%. Further, the activity at 1 µg/mL with CD11b on PMNL surface stood at 141%.
For `CCCCC(C)CC(C)C(=O)N(C)[C@@H](CC(C)C)C(=O)N[C@@H](COC(C)=O)C(=O)N(C)[C@H](C(=O)N1C[C@@H](O)C[C@H]1C(=O)N1C(=O)C=C[C@@H]1C)C(C)C` (stereo partly drawn) [Compound 9a] the same measures were 39.6%, 56.4% and 127%.
For the molecule `CCCCCCCC(=O)N(C)[C@@H](CC(C)C)C(=O)N[C@@H](COC(C)=O)C(=O)N(C)[C@H](C(=O)N1C[C@@H](O)C[C@H]1C(=O)OC)C(C)C` [Compound 17a] (Octanoyl-[NMeL]S(Ac)[NMeV][cisHyp]-OMe), the viability at 10 µg/mL in test [1] (annexin Vneg) was determined as 53.5%. In test [1] (annexin Vpos), the Percent apoptotic eosinophils (annexin V-positive) at 10 µg/mL was 48.2%.
Turning to `CCCCC(C)CC(C)C(=O)N(C)[C@@H](CC(C)C)C(=O)N[C@H](C(=O)N(C)[C@H](C(=O)N1CCC[C@H]1C(=O)N1C(=O)C=CC1=O)C(C)C)C(C)OC(C)=O` (stereo partly drawn) [Compound 12a], the viability at 10 µg/mL in test [1] (annexin Vneg) worked out at 52%. Also, the Percent apoptotic eosinophils (annexin V-positive) at 10 µg/mL in test [1] (annexin Vpos) was determined as 42.1%. In addition, the activity at 1 µg/mL with CD11b on PMNL surface was 141%.

B1: ApoA-IV: positive control in the eosinophil apoptosis and CD11b assays, used at 3 μg/mL (protein, UniProt P06727 21-396, looked up)
Apolipoprotein A-IV: EVSADQVATVMWDYFSQLSNNAKEAVEHLQKSELTQQLNALFQDKLGEVNTYAGDLQKKLVPFATELHERLAKDSEKLKEEIGKELEELRARLLPHANEVSQKIGDNLRELQQRLEPYADQLRTQVSTQAEQLRRQLTPYAQRMERVLRENADSLQASLRPHADELKAKIDQNVEELKGRLTPYADEFKVKIDQTVEELRRSLAPYAQDTQEKLNHQLEGLTFQMKKNAEELKARISASAEELRQRLAPLAEDVRGNLRGNTEGLQKSLAELGGHLDQQVEEFRRRVEPYGENFNKALVQQMEQLRQKLGPHAGDVEGHLSFLEKDLRDKVNSFFSTFKEKESQDKTLSLPELEQQQEQQQEQQQEQVQMLAPLES
Consider B1, for which the “Total percent live and apoptotic EO cells” value in test [1] (setting [2]) came out at 92.4%. Besides, the “Percent live EO cells” value in test [1] (3 μg/mL ApoA-IV (positive control), annexin Vneg) came out at 29.3%. Moreover, the “Percent of apoptotic EO cells” value in test [1] (3 μg/mL ApoA-IV (positive control), annexin Vpos) is given as 63.1%. For the same molecule, in the test on CD11b on PMNL surface (setting [2]), the “CD11b change (100% as baseline)” value amounted to 121%.
